Experimental data as given in ChEMBL document CHEMBL4177590, “Design, synthesis and biological evaluation of WZ4002 analogues as EGFR inhibitors” (Bioorg Med Chem Lett, 2017).

Experiments:
[1] = system: NCI-H460; test: Potency index, ratio of WZ4002 IC50 to compound IC50 for human NCI-H460 cells; format: functional
[2] = system: NCI-H460; test: Potency index, ratio of gefitinib IC50 to compound IC50 for human NCI-H460 cells; format: functional

Row | Compound | Ratio IC50 [1] | Ratio IC50 [2]
1 | COc1cc(N2CCN(C)CC2)ccc1Nc1ncc(Cl)c(Oc2ccccc2NC(=O)CCO)n1 | 6 - 10 | 6 - 10
2 | COc1cc(N2CCN(C)CC2)ccc1Nc1ncc(Cl)c(Oc2ccccc2NC(=O)CO)n1 | 6 - 10 | 6 - 10
3 | COc1cc(N2CCN(C)CC2)ccc1Nc1ncc(Cl)c(Oc2ccccc2NC(=O)COCc2ccccc2)n1 | 6 - 10 | 6 - 10
4 | COc1cc(N2CCN(C)CC2)ccc1Nc1ncc(Cl)c(Oc2ccccc2NC(=O)CCOCc2ccccc2)n1 | 6 - 10 | 6 - 10
